# From patent US20250339391A1, “METHODS FOR EFFECTIVE MANAGEMENT OF PAIN” (South Rampart Pharma, Inc., priority 2024, published 2025)
# “Also recorded” adds a separate entry of the source.
# What was measured:
# male Sprague-Dawley rats = assay: Neuropharmacological profile (modified Irwin/FOB) in Sprague-Dawley rats (GLP); assay type: in vivo, rat
# Method: Any potential neuropharmacological effects of orally administered SRP-001 in rats were assessed in three groups of eight male Sprague-Dawley rats. Each was orally administered SRP-001 at a single dose of 220, 440, or 660 mg/kg. Vehicle (10% labrasol: 10% DMSO: 80% PEG400) was administered to an additional group of eight rats. The dose volume was 10 mL/kg. […] All observations were made at ±5 min for the observations through 1 h post-dose and ±15 min for the later observations. Body temperature was measured 1 h following dose administration.
# [1] = test system: Salmonella typhimurium strains and Escherichia coli strain WP2 uvrA; assay: Ames reverse mutation assay; assay type: cell-based
# Method: (§1) To further evaluate the potential genotoxicity of SRP-001 and determine the validity of the in vitro findings, a second in vivo assay, a GLP-compliant Comet assay, was conducted in accordance with ICH S2(R1) Guidance on Genotoxicity Testing and Data Interpretation for Pharmaceuticals Intended for Human Use. […] SRP-001 was tested to evaluate its mutagenic potential by measuring its ability to induce reverse mutations at selected loci of several strains of Salmonella typhimurium (S. typhimurium) and at the tryptophan locus of Escherichia coli (E. coli) strain WP2 uvrA in the presence and absence of an exogenous metabolic activation system (Bioreliance, Rockville, MD USA). Dimethyl sulfoxide (10% DMSO) was used as the vehicle. The dose levels tested in the preliminary toxicity assay were 6.67, 10.0, 33.3, 66.7, 100, 333, 667, 1000, 3333, and 5000 μg per plate. No precipitate was observed. […] The dose levels tested in the mutagenicity assay were 100, 333, 667, 1000, 3333, and 5000 μg per plate. […] In the preliminary toxicity assay, the doses tested ranged from 0.0405 to 405 μg/mL (1 mM), which was the limit dose for this assay (Bioreliance, Rockville, MD USA).
# [2] = Genotoxicity battery, weight of the evidence; conditions: Ames, chromosomal aberration, micronucleus and Comet assays
# Method: To transition SRP-001 into the clinic for human use, a full set of in vivo and in vitro genotoxicity studies were performed to assess the potential genotoxicity of SRP-001.
# as §1
# Beagle dogs = assay: Dose-range-finding oral toxicity study in Beagle dogs, Phase I (non-GLP); assay type: in vivo, dog
# Method: 3) A Dose-Range-Finding and 7-day Repeat-Dose Oral Toxicity Study of SRP-001 in Beagle dogs (Non-GLP) Two beagle dogs (1/sex) were administered 30, 100, 250, or 500 mg/kg SRP-001. […] After a period of at least 2 d (minimum of 44 h) following the previous dose of test article, additional dose levels of SRP-001, as indicated above, were administered by oral gavage to the same 2 dogs (1 male and 1 female). Each dose was based on the dog's most recent body weight. Mortality/morbidity was observed twice daily and once prior to scheduled sacrifice. Body weights were recorded prior to randomization/selection, prior to each dose administration, and prior to scheduled sacrifice. At scheduled sacrifice, a gross necropsy was performed, and the tissues were appropriately discarded. […] Doses for Phase II of the study were set based on Phase I results. The actual dose amounts selected for Phase II of the study were 0, 30, 100, or 300 mg/kg/d of SRP-001. These doses were administered once daily for seven consecutive days to 1 Beagle dog/sex/dose.
# male Beagle dogs = conditions: dog, in vivo
# Method: 6) A Two-day Oral Dose Toxicity and Pharmacokinetic Study of SRP-001 in Beagle Dogs Non-GLP) SRP-001 was supplied by Olon Ricerca Bioscience as an off-white powder and then prepared as dosing suspensions for oral administration via gavage (Calvert Labs/Altasciences, Scott Township, PA USA). Six experimentally non-naïve male Beagle dogs (3/dose), at least 7 months old and weighing 7.2 to 10.2 kg prior to treatment initiation, were administered 100 or 900 mg/kg/d SRP-001. Animals were dosed three times daily (3-5 h between doses) for 2 d. Mortality/morbidity was performed twice daily. On the day of dosing, animals were observed prior to each dose administration and approximately 1-3 h after each dose. Animals were also observed once on day 3. Body weights were recorded for all animals prior to the first dose administration on days 1 and 3, and food consumption was recorded daily. Blood for bioanalytical evaluation was collected at selected timepoints on day 1. Following the completion of the study, surviving animals were not euthanized and were returned to the Calvert colony.
# [3] = Jet milling and nano-milling: particle size and solubility; assay type: physicochemical
# Method: In certain instances, a crystalline compound of Formula I is jet milled. Thereafter, the milled compound of Formula I is dispersed in a solution comprising 1% hydroxypropyl cellulose (1% HPC) and sterile water for injection and subjected to wet milling. The target particle size is approximately D90 0.15 μm. The disclosure provides using nanomilling and jet-milling techniques, to prepare an oral nanoparticle suspension containing 100 mg/mL SRP-001 in preserved aqueous 1% HPC. An oral nanoparticle suspension containing 100 mg/mL SRP-001 in aqueous 1% HPC preserved with 0.1% sodium benzoate was used.
# The drug therapeutic candidate is manufactured in a two-step process (Latitude Pharmaceuticals, Inc., San Diego, CA USA). First, SRP-001 is jet milled. Second, the milled API is dispersed in a solution comprising 1% hydroxypropyl cellulose (1% HPC) and sterile water for injection and subjected to wet milling. The target particle size is approximately D90 0.15 μm. […] An oral nanoparticle suspension containing 100 mg/mL SRP-001 in aqueous 1% HPC preserved with 0.1% sodium benzoate was manufactured for use in nonclinical studies as Lot LPI2021028 and stored at 5° C.±3° C. […] The same formulation as above was manufactured under cGMP for use in clinical studies as Lot LPI2021031 and stored at 5° C.±3° C. […] This lot has been placed on stability at 5° C., 25° C./60% RH, and 40° C./75% RH. Finally, an appearance-matched placebo consisting of 2% microcrystalline cellulose in aqueous 1% HPC preserved with 0.1% sodium benzoate and 0.05% EDTA disodium dihydrate was manufactured under cGMP for use in clinical studies. The above oral suspensions were manufactured by Latitude Pharmaceuticals Inc. (San Diego, CA, USA).
compound,measurement,setting,value
"CCN(CC)C(=O)c1ccccc1S(=O)(=O)NCC(=O)Nc1ccc(O)cc1 [SRP-001, N,N-diethyl-2-[[2-(4-hydroxyanilino)-2-oxo-ethyl]sulfamoyl]benzamide]",body temperature versus vehicle,"male Sprague-Dawley rats; 660 mg/kg, 1 h post-dose",significantly (p≤0.05) lower; also recorded: lower body temperature
same,neuropharmacological or clinical signs,"male Sprague-Dawley rats; 220, 440 or 660 mg/kg oral, through 24 h post-dose",No apparent neuropharmacological or clinical signs were observed
same,mutagenic response (reverse mutations),"[1]; 100-5000 μg per plate, with and without S9",No positive mutagenic responses were observed
same,precipitate and toxicity,"[1]; mutagenicity assay, up to 5000 μg per plate",Neither precipitate nor toxicity was observed
same,dose with toxicity (reduction in the revertant count),"[1]; preliminary toxicity assay, TA1537 and WP2 uvrA, absence of S9",5000 μg per plate
same,"genotoxicity, overall conclusion",[2],not genotoxic; also recorded: negative for genotoxicity
same,body weight and food consumption,"Beagle dogs; 30, 100, 250 or 500 mg/kg",No test article-related effects
same,clinical signs,"Beagle dogs; 30, 100, 250 or 500 mg/kg oral gavage",Loose feces and emesis were observed following most doses
same,emesis,male Beagle dogs,Nearly all animals had emesis
same,amplification in peak plasma concentration,"male Beagle dogs; male, Beagle",3-4 fold
same,tolerated dose,"male Beagle dogs; male, Beagle, 2 d",900 mg/kg/day
same,solubility,[3]; after jet milling and nano-milling,increase the solubility
same,particle size,[3]; after jet milling and nano-milling for 17 h (FIG. 25A),0.1666 μm
same,particle size,[3]; before milling (FIG. 25B),879.33 μm
